Experimental data as given in US20240043386A1, “Modulators of the Cystic Fibrosis Transmembrane Conductance Regulator Protein and Methods of Use” (AbbVie Global Enterprises Ltd., priority 2021, published 2024).
Read-outs that look alike come from different tables or passages of the source.

What was measured:
[1] = biological target: T1, F508del/F508del CFTR (Homo sapiens, UniProt P13569, DEL508-508); test: Trans-Epithelial Current Clamp (TECC) assay using primary human bronchial epithelial cells; assay type: cell-based; conditions: for Emax (% Dual): maximum percent activity relative to positive control (co-corrector 0.15 μM + potentiator 0.45 μM = 100%), primary hBE cells F508del/F508del; for EC50: primary hBE cells homozygous F508del/F508del, test C2 corrector with co-corrector and potentiator, 18-24 hours at 37° C., equivalent CFTR current (IEQ)/AUC
T1 construct: cells isolated from CF patients with the homozygous mutation; endogenous in cells; host or cells: primary human bronchial epithelial (hBE) cells from CF patients homozygous for F508del
T1 sequence (P13569 with tags, fused parts or gaps DEL508-508): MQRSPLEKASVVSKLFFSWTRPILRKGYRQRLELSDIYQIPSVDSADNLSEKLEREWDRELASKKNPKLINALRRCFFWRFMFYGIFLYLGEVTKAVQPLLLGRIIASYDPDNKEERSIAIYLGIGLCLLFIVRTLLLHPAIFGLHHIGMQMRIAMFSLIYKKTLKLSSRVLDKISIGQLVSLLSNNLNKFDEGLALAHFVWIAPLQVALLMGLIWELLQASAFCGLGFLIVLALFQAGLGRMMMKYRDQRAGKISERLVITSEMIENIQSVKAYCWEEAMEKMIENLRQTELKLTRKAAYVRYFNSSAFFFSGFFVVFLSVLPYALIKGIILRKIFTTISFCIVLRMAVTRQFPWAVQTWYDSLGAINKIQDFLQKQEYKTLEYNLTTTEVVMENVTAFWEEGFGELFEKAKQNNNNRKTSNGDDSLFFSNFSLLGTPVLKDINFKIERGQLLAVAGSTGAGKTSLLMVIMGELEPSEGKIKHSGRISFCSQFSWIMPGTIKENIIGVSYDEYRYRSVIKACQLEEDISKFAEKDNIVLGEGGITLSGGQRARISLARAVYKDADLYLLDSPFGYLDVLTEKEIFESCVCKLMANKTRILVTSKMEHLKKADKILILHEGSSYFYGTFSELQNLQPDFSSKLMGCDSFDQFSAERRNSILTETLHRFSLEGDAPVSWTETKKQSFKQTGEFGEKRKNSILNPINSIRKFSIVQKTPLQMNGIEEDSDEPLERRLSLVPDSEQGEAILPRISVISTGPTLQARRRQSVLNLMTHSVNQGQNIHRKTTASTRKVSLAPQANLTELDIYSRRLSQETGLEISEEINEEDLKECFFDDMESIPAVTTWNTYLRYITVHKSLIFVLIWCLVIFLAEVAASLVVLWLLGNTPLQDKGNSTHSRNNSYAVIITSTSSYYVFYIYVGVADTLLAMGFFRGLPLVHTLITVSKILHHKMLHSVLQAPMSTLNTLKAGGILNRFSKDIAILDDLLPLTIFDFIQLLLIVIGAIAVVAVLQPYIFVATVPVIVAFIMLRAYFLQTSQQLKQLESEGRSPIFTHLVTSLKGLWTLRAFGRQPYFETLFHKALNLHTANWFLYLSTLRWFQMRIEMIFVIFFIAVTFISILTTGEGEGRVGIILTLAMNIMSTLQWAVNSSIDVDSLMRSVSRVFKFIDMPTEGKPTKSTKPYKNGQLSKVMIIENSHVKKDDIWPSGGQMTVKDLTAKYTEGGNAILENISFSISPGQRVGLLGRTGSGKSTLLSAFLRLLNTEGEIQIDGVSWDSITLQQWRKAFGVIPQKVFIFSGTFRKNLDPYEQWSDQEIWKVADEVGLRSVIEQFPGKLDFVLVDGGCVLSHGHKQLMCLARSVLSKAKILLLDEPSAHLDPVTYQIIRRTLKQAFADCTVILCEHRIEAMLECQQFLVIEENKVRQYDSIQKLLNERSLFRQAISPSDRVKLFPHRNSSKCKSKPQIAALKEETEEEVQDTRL
Summary of the method: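 Readout is the equivalent CFTR current (IEQ, from offset-corrected VT and RT) plus AUC from forskolin peak to bumetanide addition, recorded on TECC-24 at 36.5° C. Beforehand, homozygous F508del hBE cultures received correctors with co-corrector and potentiator basolaterally for 18-24 h at 37° C.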

[2] = biological target: T2, F508delCFTR (Homo sapiens, UniProt P13569, DEL508-508); test: Cell Surface Expression-Horse Radish Peroxidase (CSE-HRP) assay in CFBE41o-F508delCFTR-HRP cells; assay type: cell-based; conditions: for EC50: CFBE41o-F508delCFTR-HRP cells, 18-24 hours at 33° C., luminescence; for Maximum % activity (with co-corrector) / Maximum % activity (without co-corrector): normalized to on-plate positive control corrector (2 μM)
T2 construct: expressed in transfected cells; host or cells: CFBE41o- human lung-derived epithelial cell line, doxycycline-inducible expression
T2 sequence (P13569 with tags, fused parts or gaps DEL508-508): as above
Summary of the method: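 Test compounds were tested alone or alongside a co-corrector (2 μM), 8-point 3-fold series from 20 or 30 μM, for 18–24 h at 33 °C on doxycycline-induced CFBE41o-F508delCFTR-HRP cells. After washing, luminol luminescence reported cell-surface HRP-tagged CFTR, normalized to the positive control (% activity). EC50 was fitted with a variable Hill slope sigmoid from triplicate plates; Z′ >0.5 required.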

[3] = with co-corrector (2 μM), read-out: EC50 (with co-corrector)
[4] = without co-corrector, read-out: EC50 (without co-corrector)

SMILES | Emax (% Dual) [1] [% Dual] | EC50 [1] [nM] | EC50 [2, 3] [nM] | Maximum % activity (with co-corrector) ([2]; with co-corrector (2 μM)) [%] | EC50 [2, 4] [nM] | Maximum % activity (without co-corrector) ([2]; without co-corrector) [%]
CCOc1cnc([C@@H]2C[C@]2(C(=O)NS(=O)(=O)c2cccc3nc(C)ccc23)c2cc(C)ccc2OC)cn1 (single isomer, unassigned) [Example 65] | 208 | 19.3 | 586 | 828 | 1340 | 394
CCOc1ncccc1[C@@H]1C[C@]1(C(=O)NS(=O)(=O)c1cccc2nc(C)ccc12)c1cc(C)ccc1OC (single isomer, unassigned) [Example 73] | 230 | 30.6 | 785 |  | 1440 | 539
COc1cncc([C@@H]2C[C@]2(C(=O)NS(=O)(=O)c2cccc3nc(C)ccc23)c2cc(C)ccc2OC)n1 (single isomer, unassigned) [Example 74] | 222 | 222 | 743 | 545 | 1290 | 188
COc1cncc([C@H]2C[C@@]2(C(=O)NS(=O)(=O)c2cccc3nc(C)ccc23)c2cc(C)ccc2OC)n1 (single isomer, unassigned) [Example 75] | 402 | 36.2 | 635 |  | 1650 | 939
COc1ccc(C)cc1[C@@]1(C(=O)NS(=O)(=O)c2cccc3nc(C)ccc23)C[C@H]1c1ccc(C)nc1OC (single isomer, unassigned) [Example 85] | 206 | 24.7 | 810 |  | 1010 | 786
COc1ccc(C)cc1[C@]1(C(=O)NS(=O)(=O)c2cccc3nc(C)ccc23)C[C@@H]1c1ccc(C)nc1OC (single isomer, unassigned) [Example 86] | 176 | 24.1 | 1440 |  | 2210 | 
COc1ccc(C)cc1[C@@]1(C(=O)NS(=O)(=O)c2cccc3nc(C)ccc23)C[C@H]1c1ccc(C(C)C)nc1OC (single isomer, unassigned) [Example 87] | 271 | 6.9 | 165 |  | 452 | 881
COc1ccc(C)cc1[C@]1(C(=O)NS(=O)(=O)c2cccc3nc(C)ccc23)C[C@@H]1c1ccc(C(C)C)nc1OC (single isomer, unassigned) [Example 88] | 275 | 12.6 | 534 |  | 1180 | 910
COc1ccc(C)cc1[C@@]1(C(=O)NS(=O)(=O)c2cccc3nc(C)ccc23)C[C@H]1c1cnc(C)cn1 (single isomer, unassigned) [Example 91] | 138 | > 800 | 4340 | 579 | 5240 | 226
COc1ccc(C)cc1[C@]1(C(=O)NS(=O)(=O)c2cccc3nc(C)ccc23)C[C@@H]1c1cnc(C)cn1 (single isomer, unassigned) [Example 92] | 187 | 87.6 | 1150 |  | 2130 | 653
COc1ccc([C@@H]2C[C@]2(C(=O)NS(=O)(=O)c2cccc3nc(C)ccc23)c2cc(C)ccc2OC)c(OC)n1 (single isomer, unassigned) [Example 93] | 271 | 42.6 | 132 |  | 268 | 491
COc1nccc([C@H]2C[C@@]2(C(=O)NS(=O)(=O)c2cccc3nc(C)ccc23)c2cc(C)ccc2OC)n1 (single isomer, unassigned) [Example 98] | 201 | 21 | 804 |  | 1440 | 
COc1nccc([C@@H]2C[C@]2(C(=O)NS(=O)(=O)c2cccc3nc(C)ccc23)c2cc(C)ccc2OC)n1 (single isomer, unassigned) [Example 99] | 126 | > 1000 | 2760 | 509 | 3980 | 180
COc1ccc(C)cc1[C@]1(C(=O)NS(=O)(=O)c2cccc3nc(C)ccc23)C[C@@H]1c1cnc(C)c(F)c1 (single isomer, unassigned) [Example 100] | 207 | 114 | 2780 |  | 4490 | 
COc1ccc(C)cc1[C@@]1(C(=O)NS(=O)(=O)c2cccc3nc(C)ccc23)C[C@H]1c1cnc(C)c(F)c1 (single isomer, unassigned) [Example 101] | 199 | 147 | 884 | 842 | 1000 | 243
COc1ccc(C)cc1[C@]1(C(=O)NS(=O)(=O)c2cccc3nc(C)ccc23)CC1c1cccc(Cl)n1 (stereo in doubt) [Example 105, (1S,2S)-2-(6-chloropyridin-2-yl)-1-(2-methoxy-5-methylphenyl)-N-(2-methylquinoline-5-sulfonyl)cyclopropane-1-carboxamide] | 296 | 3.1 | 277 |  | 1450 | 
CCOc1nc(C2C[C@@]2(C(=O)NS(=O)(=O)c2cccc3nc(C)ccc23)c2cc(C)ccc2OC)ccc1F (stereo in doubt) [Example 106, (1S,2S)-2-(6-ethoxy-5-fluoropyridin-2-yl)-1-(2-methoxy-5-methylphenyl)-N-(2-methylquinoline-5-sulfonyl)cyclopropane-1-carboxamide] | 188 | 11.6 | 222 |  |  | 
COc1ccc(C)cc1[C@]1(C(=O)NS(=O)(=O)c2cccc3nc(C)ccc23)C[C@@H]1c1ccc(C)nc1 [Example 11, (1S,2R)-1-(2-methoxy-5-methylphenyl)-2-(6-methylpyridin-3-yl)-N-(2-methylquinoline-5-sulfonyl)cyclopropane-1-carboxamide] | 214 | 49 | 2820 |  | 4600 | 679
COc1ccc(C)cc1[C@@]1(C(=O)NS(=O)(=O)c2cccc3nc(C)ccc23)C[C@H]1c1ccccn1 [Example 13, (1R,2R)-1-(2-methoxy-5-methylphenyl)-N-(2-methylquinoline-5-sulfonyl)-2-(pyridin-2-yl)cyclopropane-1-carboxamide] | 232 | 57.7 | 1490 |  | 2480 | 
COc1ccc(C)cc1[C@]1(C(=O)NS(=O)(=O)c2cccc3nc(C)ccc23)C[C@@H]1c1ccccn1 [Example 14, (1S,2S)-1-(2-methoxy-5-methylphenyl)-N-(2-methylquinoline-5-sulfonyl)-2-(pyridin-2-yl)cyclopropane-1-carboxamide] | 165 | 799 | 2800 |  | 3810 | 520
COc1ccc([C@H]2C[C@@]2(C(=O)NS(=O)(=O)c2cccc3nc(C)ccc23)c2cc(C)ccc2OC)cn1 [Example 32, (1S,2R)-1-(2-methoxy-5-methylphenyl)-2-(6-methoxypyridin-3-yl)-N-(2-methylquinoline-5-sulfonyl)cyclopropane-1-carboxamide] | 259 | 9.1 | 1440 |  | 2960 | 
COc1ccc([C@@H]2C[C@]2(C(=O)NS(=O)(=O)c2cccc3nc(C)ccc23)c2cc(C)ccc2OC)cn1 [Example 33, (1R,2S)-1-(2-methoxy-5-methylphenyl)-2-(6-methoxypyridin-3-yl)-N-(2-methylquinoline-5-sulfonyl)cyclopropane-1-carboxamide] | 215 | 48.8 | 906 |  | 1270 | 470
COc1ccc(C)cc1[C@]1(C(=O)NS(=O)(=O)c2cccc3nc(C)ccc23)C[C@@H]1c1ccccc1C [Example 34, (1S,2R)-1-(2-methoxy-5-methylphenyl)-2-(2-methylphenyl)-N-(2-methylquinoline-5-sulfonyl)cyclopropane-1-carboxamide] | 459 | 2.9 | 385 |  | 783 | 
COc1cccc([C@H]2C[C@@]2(C(=O)NS(=O)(=O)c2cccc3nc(C)ccc23)c2cc(C)ccc2OC)n1 [Example 43, (1s,2s)-1-(2-methoxy-5-methylphenyl)-2-(6-methoxypyridin-2-yl)-N-(2-methylquinoline-5-sulfonyl)cyclopropane-1-carboxamide] | 272 | 2.9 | 806 |  | 2420 | 
